*1 amine or outer side, *2 acyl side, *3 side chain or, on linkers, in order; H or OH if unused. Where a SMILES comes first, the peptide text is derived from it. Side-chain parts run from the residue outwards. [ ]: non-standard residue; d: D form. The star is where a group is joined. Isobutyryl(2-(3-CN-5-F-Ph)) = CC(C)(C(=O)*)c1cc(F)cc(C#N)c1; C20 diacid = O=C(O)CCCCCCCCCCCCCCCCCCC(=O)*; αMePhe(2-F) = C[C@](N)(Cc1ccccc1F)C(=O)O; γGlu = O=C(O)[C@H](CCC(=O)[*:2])N[*:1]; X27 = O=C1CC(C(=O)*)(c2ccccc2)CN1; αMeF = C[C@](N)(Cc1ccccc1)C(=O)O; X60 = O=C(C1(c2cccnc2)CCCC1)*; AEEA = NCCOCCOCC(=O)O; Aib = CC(C)(N)C(=O)O; βAla = NCCC(=O)O
Experiments:
Format in all cases: cell-based
GLP-1 receptor [1] = target: T1, GLP-1 receptor (Homo sapiens, UniProt P43220); assay: HitHunter cAMP assay, GLP-1 receptor; conditions: for EC50: CHO cells stably expressing human GLP-1 receptor, cAMP accumulation, 30 min, read-out: EC50 GLP-1R; for Emax: CHO cells, cAMP, normalized to maximum signal from GLP-1 (high) and DMSO (low), read-out: Emax GLP-1R
GLP-1 receptor [2] = target: T1, GLP-1 receptor; assay: PathHunter β-arrestin assay, GLP-1 receptor; parameters: host or cells: PathHunter CHO-K1 GLP1R β-Arrestin Cell Line; conditions: β-arrestin-2 recruitment, PathHunter CHO-K1 GLP1R β-Arrestin Cell Line, 90 min at 37° C.; normalized to GLP-1; read-out: GLP-1R β Arrestin EC50
GIP receptor [3] = target: T2, GIP receptor (Homo sapiens, UniProt P48546); assay: PathHunter β-arrestin assay, GIP receptor; parameters: host or cells: PathHunter CHO-K1 GIPR β-Arrestin Cell Line; conditions: β-arrestin-2 recruitment, PathHunter CHO-K1 GIPR β-Arrestin Cell Line, 90 min at 37° C.; normalized to GIP; read-out: GIPR β Arrestin EC50
T2 sequence (P48546 22-466): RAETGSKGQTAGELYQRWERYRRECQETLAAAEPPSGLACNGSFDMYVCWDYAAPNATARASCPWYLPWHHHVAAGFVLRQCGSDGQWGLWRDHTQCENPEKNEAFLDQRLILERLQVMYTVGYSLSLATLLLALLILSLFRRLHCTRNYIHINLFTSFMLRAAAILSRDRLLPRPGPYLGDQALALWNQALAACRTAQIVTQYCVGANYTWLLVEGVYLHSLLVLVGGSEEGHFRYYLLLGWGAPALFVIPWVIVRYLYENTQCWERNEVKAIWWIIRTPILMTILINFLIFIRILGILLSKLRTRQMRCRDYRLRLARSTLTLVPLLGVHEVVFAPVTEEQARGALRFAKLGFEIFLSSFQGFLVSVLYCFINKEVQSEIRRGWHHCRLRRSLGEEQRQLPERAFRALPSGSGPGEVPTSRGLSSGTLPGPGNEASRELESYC

GIP receptor [4] = target: T2, GIP receptor; assay: HitHunter cAMP assay, GIP receptor; conditions: for EC50: CHO cells stably expressing GIP receptor, cAMP accumulation, 30 min, read-out: EC50 GIP-1R; for Emax: CHO cells, cAMP, normalized to maximum signal from GIP (high) and DMSO (low), read-out: Emax GIP-1R

T1 sequence (P43220 24-463): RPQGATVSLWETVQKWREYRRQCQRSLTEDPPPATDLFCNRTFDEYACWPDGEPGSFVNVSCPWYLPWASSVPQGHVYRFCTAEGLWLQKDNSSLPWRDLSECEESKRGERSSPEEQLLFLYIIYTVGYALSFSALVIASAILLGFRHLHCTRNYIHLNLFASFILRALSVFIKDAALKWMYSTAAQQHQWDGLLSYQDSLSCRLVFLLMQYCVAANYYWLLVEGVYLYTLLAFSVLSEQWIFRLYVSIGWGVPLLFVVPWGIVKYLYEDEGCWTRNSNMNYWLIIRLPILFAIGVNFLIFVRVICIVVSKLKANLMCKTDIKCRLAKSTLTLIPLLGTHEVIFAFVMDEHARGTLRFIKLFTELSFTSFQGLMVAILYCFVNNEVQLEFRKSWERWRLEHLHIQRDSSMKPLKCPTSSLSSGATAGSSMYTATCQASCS

SMILES | EC50 (GLP-1 receptor [1]) | Emax (GLP-1 receptor [1]) | EC50 (GLP-1 receptor [2]) | EC50 (GIP receptor [3]) | EC50 (GIP receptor [4]) | Emax (GIP receptor [4])
CC[C@H](C)[C@H](NC(=O)[C@H](CO)NC(=O)[C@H](CCCCNC(=O)COCCOCCNC(=O)COCCOCCNC(=O)CC[C@H](NC(=O)CCCCCCCCCCCCCCCCCCC(=O)O)C(=O)O)NC(=O)[C@H](CC(=O)O)NC(=O)[C@H](CO)NC(=O)[C@@H](NC(=O)[C@H](Cc1ccccc1)NC(=O)[C@@H](NC(=O)CNC(=O)[C@H](CCC(=O)O)NC(=O)CCNC(=O)C(C)(C)c1cc(F)cc(C#N)c1)[C@@H](C)O)[C@@H](C)O)C(=O)N[C@@H](Cc1ccc(O)cc1)C(=O)N[C@@H](CC(C)C)C(=O)N[C@@H](CC(=O)O)C(=O)N[C@@H](CCCCN)C(=O)N[C@@H](CCC(N)=O)C(=O)N[C@@H](C)C(=O)N[C@@H](C)C(=O)NC(C)(C)C(=O)N[C@@H](CCC(=O)O)C(=O)N[C@@H](Cc1ccccc1)C(=O)N[C@H](C(=O)N[C@@H](CC(N)=O)C(=O)N[C@@H](Cc1c[nH]c2ccccc12)C(=O)N[C@@H](CC(C)C)C(=O)N[C@@H](CC(C)C)C(=O)N[C@@H](C)C(=O)NCC(=O)NCC(=O)N1CCC[C@H]1C(=O)N[C@@H](CO)C(=O)N[C@@H](CO)C(=O)NCC(=O)N[C@@H](C)C(=O)N1CCC[C@H]1C(=O)N1CCC[C@H]1C(=O)N1CCC[C@H]1C(=O)N[C@@H](CO)C(N)=O)C(C)C [Compound 167] ({Isobutyryl(2-(3-CN-5-F-Ph))-βAla}-EGTFTSDK([AEEA-AEEA-γGlu-C20 diacid])SIYLDKQAA[Aib]EFVNWLLAGGPSSGAPPPS-NH2) | 0.1 to 1 nM | 108% | > 1000 nM | > 1000 nM | 10 to 100 nM | 91%
CC[C@H](C)[C@H](NC(=O)[C@H](CC(C)C)NC(=O)[C@H](Cc1c[nH]c2ccccc12)NC(=O)[C@H](CCC(N)=O)NC(=O)[C@@H](NC(=O)[C@H](Cc1ccccc1)NC(=O)[C@H](C)NC(=O)[C@H](CCCCNC(=O)COCCOCCNC(=O)COCCOCCNC(=O)CC[C@H](NC(=O)CCCCCCCCCCCCCCCCCCC(=O)O)C(=O)O)NC(=O)[C@H](CCC(N)=O)NC(=O)[C@H](C)NC(=O)[C@H](CCC(N)=O)NC(=O)[C@H](CCCCN)NC(=O)[C@H](CC(=O)O)NC(=O)[C@H](CC(C)C)NC(=O)C(C)(C)NC(=O)[C@@H](NC(=O)[C@H](CO)NC(=O)[C@H](Cc1ccc(O)cc1)NC(=O)[C@H](CC(=O)O)NC(=O)[C@H](CO)NC(=O)[C@@H](NC(=O)[C@H](Cc1ccccc1)NC(=O)[C@@H](NC(=O)CNC(=O)[C@H](CCC(=O)O)NC(=O)CCNC(=O)C(C)(C)c1cc(F)cc(C#N)c1)[C@@H](C)O)[C@@H](C)O)[C@@H](C)CC)C(C)C)C(=O)N[C@@H](C)C(=O)NCC(=O)NCC(=O)N1CCC[C@H]1C(=O)N[C@@H](CO)C(=O)N[C@@H](CO)C(=O)NCC(=O)N[C@@H](C)C(=O)N1CCC[C@H]1C(=O)N1CCC[C@H]1C(=O)N1CCC[C@H]1C(=O)N[C@@H](CO)C(N)=O [Compound 186] ({Isobutyryl(2-(3-CN-5-F-Ph))-βAla}-EGTFTSDYSI[Aib]LDKQAQK([AEEA-AEEA-γGlu-C20 diacid])AFVQWLIAGGPSSGAPPPS-NH2) | 0.1 to 1 nM | 99% | > 1000 nM | > 1000 nM | 10 to 100 nM | 100%
CC[C@H](C)[C@H](NC(=O)[C@H](CC(C)C)NC(=O)[C@H](Cc1c[nH]c2ccccc12)NC(=O)[C@H](CCC(N)=O)NC(=O)[C@@H](NC(=O)[C@H](Cc1ccccc1)NC(=O)[C@H](C)NC(=O)[C@H](CCCCNC(=O)COCCOCCNC(=O)COCCOCCNC(=O)CC[C@H](NC(=O)CCCCCCCCCCCCCCCCCCC(=O)O)C(=O)O)NC(=O)[C@H](CCC(N)=O)NC(=O)[C@H](C)NC(=O)[C@@H](NC(=O)[C@H](CCCCN)NC(=O)[C@H](CC(=O)O)NC(=O)[C@H](CC(C)C)NC(=O)C(C)(C)NC(=O)[C@@H](NC(=O)[C@H](CO)NC(=O)[C@H](Cc1ccc(O)cc1)NC(=O)[C@H](CC(=O)O)NC(=O)[C@H](CO)NC(=O)[C@@H](NC(=O)[C@](C)(Cc1ccccc1)NC(=O)[C@@H](NC(=O)CNC(=O)[C@H](CCC(=O)O)NC(=O)CCNC(=O)C1(c2cccnc2)CCCC1)[C@@H](C)O)[C@@H](C)O)[C@@H](C)CC)[C@@H](C)CC)C(C)C)C(=O)N[C@@H](C)C(=O)NCC(=O)NCC(=O)N1CCC[C@H]1C(=O)N[C@@H](CO)C(=O)N[C@@H](CO)C(=O)NCC(=O)N[C@@H](C)C(=O)N1CCC[C@H]1C(=O)N1CCC[C@H]1C(=O)N1CCC[C@H]1C(=O)N[C@@H](CO)C(N)=O [Compound 234] ({X60-βAla}-EGT[αMeF]TSDYSI[Aib]LDKIAQK([AEEA-AEEA-γGlu-C20 diacid])AFVQWLIAGGPSSGAPPPS-NH2) | 0.1 to 1 nM | 105% | > 1000 nM | < 1000 nM | 0.1 to 1 nM | 112%
CC[C@H](C)[C@H](NC(=O)[C@H](CO)NC(=O)[C@H](Cc1ccc(O)cc1)NC(=O)[C@H](CC(=O)O)NC(=O)[C@H](CO)NC(=O)[C@@H](NC(=O)[C@H](Cc1ccccc1)NC(=O)[C@@H](NC(=O)CNC(=O)[C@H](CCC(=O)O)NC(=O)CCNC(=O)[C@@]1(c2ccccc2)CNC(=O)C1)[C@@H](C)O)[C@@H](C)O)C(=O)N[C@@H](Cc1ccc(O)cc1)C(=O)N[C@@H](CC(C)C)C(=O)N[C@@H](CC(=O)O)C(=O)N[C@@H](CCCCN)C(=O)N[C@@H](CCC(N)=O)C(=O)N[C@@H](C)C(=O)N[C@@H](C)C(=O)N[C@@H](CCCCNC(=O)COCCOCCNC(=O)COCCOCCNC(=O)CC[C@H](NC(=O)CCCCCCCCCCCCCCCCCCC(=O)O)C(=O)O)C(=O)N[C@@H](CCC(=O)O)C(=O)N[C@@H](Cc1ccccc1)C(=O)N[C@H](C(=O)N[C@@H](CC(N)=O)C(=O)N[C@@H](Cc1c[nH]c2ccccc12)C(=O)N[C@@H](CC(C)C)C(=O)N[C@@H](CC(C)C)C(=O)N[C@@H](C)C(=O)NCC(=O)NCC(=O)N1CCC[C@H]1C(=O)N[C@@H](CO)C(=O)N[C@@H](CO)C(=O)NCC(=O)N[C@@H](C)C(=O)N1CCC[C@H]1C(=O)N1CCC[C@H]1C(=O)N1CCC[C@H]1C(=O)N[C@@H](CO)C(N)=O)C(C)C (single isomer, unassigned) [Compound 124] | 10 to 100 nM | 97% | > 1000 nM | > 1000 nM | 10 to 100 nM | 102%
CC[C@H](C)[C@H](NC(=O)[C@H](CO)NC(=O)[C@H](CCCCNC(=O)COCCOCCNC(=O)COCCOCCNC(=O)CC[C@H](NC(=O)CCCCCCCCCCCCCCCCCCC(=O)O)C(=O)O)NC(=O)[C@H](CC(=O)O)NC(=O)[C@H](CO)NC(=O)[C@@H](NC(=O)[C@](C)(Cc1ccccc1F)NC(=O)[C@@H](NC(=O)CNC(=O)[C@H](CCC(=O)O)NC(=O)CCNC(=O)C1(c2ccccc2)CNC(=O)C1)[C@@H](C)O)[C@@H](C)O)C(=O)N[C@@H](Cc1ccc(O)cc1)C(=O)N[C@@H](CC(C)C)C(=O)N[C@@H](CC(=O)O)C(=O)N[C@@H](CCCCN)C(=O)N[C@@H](CCC(N)=O)C(=O)N[C@@H](C)C(=O)N[C@@H](C)C(=O)NC(C)(C)C(=O)N[C@@H](CCC(=O)O)C(=O)N[C@@H](Cc1ccccc1)C(=O)N[C@H](C(=O)N[C@@H](CC(N)=O)C(=O)N[C@@H](Cc1c[nH]c2ccccc12)C(=O)N[C@@H](CC(C)C)C(=O)N[C@@H](CC(C)C)C(=O)N[C@@H](C)C(=O)NCC(=O)NCC(=O)N1CCC[C@H]1C(=O)N[C@@H](CO)C(=O)N[C@@H](CO)C(=O)NCC(=O)N[C@@H](C)C(=O)N1CCC[C@H]1C(=O)N1CCC[C@H]1C(=O)N1CCC[C@H]1C(=O)N[C@@H](CO)C(N)=O)C(C)C (stereo partly drawn) [Compound 138] ({X27-βAla}-EGT[αMePhe(2-F)]TSDK([AEEA-AEEA-γGlu-C20 diacid])SIYLDKQAA[Aib]EFVNWLLAGGPSSGAPPPS-NH2) | < 0.1 nM | 100% | < 1000 nM | < 1000 nM | 0.1 to 1 nM | 100%
